From patent US8859848B2, “Phloretin glycosyltransferases, polynucleotides encoding these and methods of use” (The New Zealand Institute for Plant and Food Research …, priority 2007, dated 2014)
“Also recorded” adds a separate entry of the source. Like-named read-outs stand apart in the source and are kept apart here.

T1: MpUGT88A1 (Malus domestica, UniProt B3TKC8)
T1 construct: The entire coding region of the MpUGT88A1 cDNA was cloned in frame into the expression vector pET30a(+); made in house; host or cells: E. coli BL21-Codon-Plus-RIL
T1 sequence (B3TKC8 1-483): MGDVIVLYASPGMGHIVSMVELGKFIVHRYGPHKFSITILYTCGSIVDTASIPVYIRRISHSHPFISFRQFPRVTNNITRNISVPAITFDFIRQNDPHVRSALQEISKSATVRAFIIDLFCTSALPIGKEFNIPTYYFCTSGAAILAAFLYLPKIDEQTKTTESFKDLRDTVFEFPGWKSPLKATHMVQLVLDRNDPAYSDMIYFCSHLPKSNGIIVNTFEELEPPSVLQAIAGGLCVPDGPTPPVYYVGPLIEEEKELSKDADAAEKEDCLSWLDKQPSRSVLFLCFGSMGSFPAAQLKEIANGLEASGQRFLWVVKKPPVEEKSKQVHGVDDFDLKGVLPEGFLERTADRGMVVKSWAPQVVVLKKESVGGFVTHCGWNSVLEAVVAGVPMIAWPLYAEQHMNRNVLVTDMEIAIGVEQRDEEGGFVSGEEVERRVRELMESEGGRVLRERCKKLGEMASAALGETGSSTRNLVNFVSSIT

B1: MpUGT88A1: Malus domestica uridine diphosphate glycosyltransferase; recombinant His6-tagged phloretin glycosyltransferase produced in E. coli (protein, listed as Malus domestica)
chain: T1 sequence (B3TKC8 1-483)
modifications: His6 tag
notes: Malus domestica uridine diphosphate glycosyltransferase; recombinant His6-tagged phloretin glycosyltransferase produced in E. coli
B2: Md—138221: variant phloretin glycosyltransferase polypeptide from Malus x domestica (protein, listed as Malus domestica)
chain: MGDVIVLYAAPGMGHVISMVELGKLILHRYGPHKFSITILYTCGSFFDTPSIPAYIRRISHSHPSISFRQFPRVTNKITQNISGTAIVVDFVRQNDPHVRRALQDISKSAVVRAFIIDLVCTSAMTISKEFDIPTYYFYTSGAAALGAFLYFPKIHEQTTQSFKDLTDTVIEFPGRKSPLKAIHMIEPLLDRDDPAYWDFLSFCSDLPKSKGIIVNTFEELEPPAVLHAIAEGLCVPDGPTSPVYYVGPLIDEEKVSGNDAAAAEEDCLSWLDKQPSRSVVFLCFGSRGSLPAIQLKEIAKALEASGQRFLWVVKKPPVDEKTKQVLGVDDFDLEGVLPEGFLERTKDRGMVVKSWAPQAEVLKKESVGGFVTHCGWNSVLEAVVAGVPMIAWPLYAEQHLNRNVMATDMEIAIAVEQRDEEDGFVSGEELERRVRELMESEEGRVLRERSKKIGEMAMAALGENGSSTRNLVNFVNSLT

What was measured:
Assay type in all cases: biochemical
MpUGT88A1 [1] = target: T1, MpUGT88A1; assay: UGT activity assay with [3H]-UDP-glucose, recombinant MpUGT88A1; conditions: [3H]-UDP-glucose as sugar donor; 2 mM substrate; 30° C., 30 min
Procedure: UGT activity assays were performed in triplicate in 50 μl reactions using ˜1-2 μg of recombinant protein purified on His-Trap and G200 Superdex columns. […] Reactions were performed at 30° C. for 30 min and terminated by addition of 10 μL of 2 M HCl. The reaction mixtures were extracted twice with 100 μL of ethyl acetate and 20 μl of the organic phase were combined with 1 ml of non-aqueous scintillation fluid and analysed by liquid scintillation counting (Tri-Carb 2900TR, PerkinElmer, Boston, Mass., USA). Boiled enzyme and pET30a(+) vector controls were run in parallel with all enzyme reactions. […]
Fifteen substrates (caffeic acid, catechin, chlorogenic acid, 2-coumaric acid, 3-coumaric acid, 4-coumaric acid, cyanidin, 3-(3,4 dihydroxyphenyl) propionic acid, epicatechin, 3-hydroxybenzoic acid, naringenin, phloretin, protocatechuic acid, quercetin and rutin) that are natural constituents of apple fruit or commonly available phenolic compounds were screened for activity.

MpUGT88A1 [2] = target: T1, MpUGT88A1; conditions: 2 μM phloretin; for inhibition of enzyme activity by divalent cations: 25 mM
Procedure: (§1) UGT activity assays were performed in triplicate in 50 μl reactions using ˜1-2 μg of recombinant protein purified on His-Trap and G200 Superdex columns. […] Reactions were performed at 30° C. for 30 min and terminated by addition of 10 μL of 2 M HCl. The reaction mixtures were extracted twice with 100 μL of ethyl acetate and 20 μl of the organic phase were combined with 1 ml of non-aqueous scintillation fluid and analysed by liquid scintillation counting (Tri-Carb 2900TR, PerkinElmer, Boston, Mass., USA). Boiled enzyme and pET30a(+) vector controls were run in parallel with all enzyme reactions.
(§2) The effect on UGT activity of different pH (5-10), temperature (15-50° C.) and ionic strength of monovalent (Na^+, 0-100 mM; K^+, 0-10 mM) and divalent ions ([…] or Mn^2+, 0-25 mM) was determined as described above using 2 μM phloretin.

MpUGT88A1 [3] = target: T1, MpUGT88A1; conditions: 10 μM phloretin, 250 μM UDP-sugar, 16 h
[4] = Effect of pH and temperature on UGT activity of MpUGT88A1 towards phloretin; conditions: 2 μM phloretin
Procedure: as §1, §2

[5] = Phloretin glycosyl transferase activity assay of recombinant Md—138221; conditions: recombinant protein from E. coli
Procedure: as §1

Molecule	utilised by MpUGT88A1 as an acceptor (substrate screen) (MpUGT88A1 [1])	also measured
O=C(O)/C=C/c1ccccc1O [2-coumaric acid]	only phloretin was utilised	
O=C(O)CCc1ccc(O)c(O)c1 [3-(3,4 dihydroxyphenyl) propionic acid]	only phloretin was utilised	
O=C(O)/C=C/c1cccc(O)c1 [3-coumaric acid]	only phloretin was utilised	
O=C(O)c1cccc(O)c1 [3-hydroxybenzoic acid]	only phloretin was utilised	
O=C(O)/C=C/c1ccc(O)cc1 [4-coumaric acid]	only phloretin was utilised	
[K+] [K^+]		inhibition of enzyme activity by monovalent cation (MpUGT88A1 [2]; 10 mM): not inhibited
[Mg+2] [Mg^2+]		inhibition of enzyme activity by divalent cations (MpUGT88A1 [2]): not inhibited
[Mn+2] [Mn^2+]		inhibition of enzyme activity by divalent cations (MpUGT88A1 [2]): not inhibited
[Na+] [Na^+]		inhibition of enzyme activity by monovalent cation (MpUGT88A1 [2]; 100 mM): not inhibited
O=c1ccn([C@@H]2O[C@H](COP(=O)(O)OP(=O)(O)O[C@H]3OC[C@@H](O)[C@H](O)[C@H]3O)[C@@H](O)[C@H]2O)c(=O)[nH]1 [UDP-xylose]		glycosylated product formation with phloretin and activated sugar donor (HPLC/LC-MS) (MpUGT88A1 [3]): a single glycosylated product was formed
O=C(O)/C=C/c1ccc(O)c(O)c1 [caffeic acid]	only phloretin was utilised	
O=C(/C=C/c1ccc(O)c(O)c1)O[C@@H]1C[C@](O)(C(=O)O)C[C@@H](O)[C@H]1O [chlorogenic acid]	only phloretin was utilised	
O=C1C[C@@H](c2ccc(O)cc2)Oc2cc(O)cc(O)c21 [naringenin]	only phloretin was utilised; also recorded: not utilised as substrates	
O=C(CCc1ccc(O)cc1)c1c(O)cc(O)cc1O [phloretin]	only phloretin was utilised	
O=C(O)c1ccc(O)c(O)c1 [protocatechuic acid]	only phloretin was utilised	
O=c1c(O)c(-c2ccc(O)c(O)c2)oc2cc(O)cc(O)c12 [quercetin]	only phloretin was utilised; also recorded: not utilised as substrates	
catechin	only phloretin was utilised	
B1		pH range of significant activity ([4]; pH range 5-10): 7-8; pH of maximum activity ([4]; pH range 5-10, 50 mM Tris-HCl): 7.7; activity at pH 5 and 10 ([4]; relative to maximum): less than 5%; activity at pH 6 and 9 ([4]; relative to maximum): 20%; temperature of maximum activity ([4]; standard conditions): 25 °C; temperature range of activity ([4]; standard conditions): 15-50 °C
B2		phloretin glycosyltransferase activity relative to that shown for MpUGT88A1 [5]: approximately 3%
